Results taken from article PMC10344917, “Affinity and cooperativity modulate ternary complex formation to drive targeted protein degradation” (Nature Communications, 2023).
Where two headings read alike, the source gives them in different places.

What was measured:
SMARCA2 = biological target: T1, SMARCA2 (Homo sapiens, UniProt P51531); assay: SMARCA2 degradation, MSD assay, dose response; format: cell-based; design: key to AUC (area under the dose-response curve): sum of trapezoids of POC vs dose points, h = 1; conditions: A375 cells
T1 construct: endogenous in cells; host or cells: A375
Protocol: A375 cells were treated with SMARCA2 or BRD4 degraders for 2 h (4 h for BRD4) and generated lysates. SMARCA2 or BRD4 protein was measured with a variation of a sandwich ELISA that was assembled from commercially available antibodies as well as reagents and instrumentation procured from Meso Scale Discovery (MSD). Degradation parameter, DC50, is not suitable for PROTACs that induce partial/incomplete DR curves at a fixed time point; maximum drop in target protein level (Dmax) >>0. Conversely, the area under the curve (AUC) can be calculated as a degradation activity parameter for any DR curve, and it encompasses both the degradation potency (i.e., DC50) and efficacy (i.e., Dmax) of PROTACs.
A 1:3 compound dose-response titration was diluted in growth media (1:20), added to appropriate wells of a cell culture plate (1:10) and then assay plates were incubated at 37 °C, 5% CO2.
Plates were washed with 300 µL per well MSD wash buffer (MSD R61TX-1) between each step. Following the last incubation, plates were washed with MSD wash buffer then 150 µL of MSD read buffer (MSD R92TC-2) was added to each well. Plates were immediately read on a MSD plate reader (MSD Sector Imager 6000).
MSD electrochemiluminescence signals were subtracted by the average background signal from wells with lysis buffer alone. Normalized MSD values (POC) for individual compound treated wells were acquired by dividing background-subtracted assay signal by signal from vehicle control wells (cells + 0.1% DMSO) and multiplying by 100. This POC data was graphed using a nonlinear regression curve fit xy analysis and a log(inhibitor) vs response —variable slope (four parameter) model for dose response curves (Graphpad Prism 9, San Diego, CA, USA). To calculate area under the curve, all points on the curve were connected and vertical lines were drawn from each point down to y = 0, generating a series of trapezoids. The area of each trapezoid was determined using the equation A = (1/2)(h)(b1 + b2), where h = 1 (distance between points), b1 = POC of the first point and b2 = POC of the second point. The sum of all trapezoids provides an approximate area under the curve (AUC). For half-life (t1/2) determination in time course studies, a one-phase decay model was used for curve fitting and the time at which the curve crossed 50 POC was determined through interpolation (Graphpad Prism 9, San Diego, CA, USA).

VHL/EloB/EloC (VBC) = biological target: T2, VHL/EloB/EloC (VBC) (Homo sapiens, UniProt P40337); assay: SPR binary binding of PROTAC to VBC-functionalized surface; conditions: SPR; error SEM, N = 3; read-out: KLP (binary binding affinity between E3 ligase VHL and PROTAC)
T2 construct: VHL (54-213), ElonginB (17-112) ElonginC (1-104); made in house

SMARCA2^BD = biological target: T3, SMARCA2^BD (Homo sapiens, UniProt P51531); assay: SPR binary binding of PROTAC to SMARCA2-functionalized surface; conditions: 1:1 Langmuir binding model, SEM N=3 or SD N=2, read-out: KTP (binary affinity PROTAC / SMARCA2)
T3 construct: SMARCA2^BD 1373–1511 ∆1400–1417; made in house
Protocol: PROTACs (10 mM stocks in 100% DMSO) were diluted to 400 nM in a running buffer (20 mM Tris pH 7.5, 200 mM NaCl, 0.02% P20). This stock solution was then serially diluted in the running buffer containing final 2% DMSO. Solutions were injected in multi-cycle kinetic format without regeneration (contact time 60 s, flow rate 80 μL/min, dissociation time 120 s) using a stabilization period of 30 s and syringe wash (50% DMSO) between injections onto a high-density VBC-functionalized surface. For SMARCA2 analysis, biotinylated proteins were introduced on a Series S streptavidin (SA) sensor chip at high-density (3000-4000 RU).
Raw sensorgrams were processed by performing double reference subtraction, solvent correction, and analysis was done using Biacore Insight Evaluation Software. Kinetic analysis was performed by fitting data to a 1:1 Langmuir interaction model and a steady-state affinity model was used to evaluate equilibrium binding affinity.

SMARCA2-NanoLuc = biological target: T4, SMARCA2-NanoLuc (Homo sapiens, UniProt P51531); assay: NanoBRET target engagement assay, live and permeabilized HEK293 cells (SMARCA2); format: cell-based; conditions: SMARCA2 NanoBRET TE
T4 construct: expressed in transfected cells; host or cells: HEK293
Protocol: We employed a NanoBRET-based target engagement (TE) assay as reported earlier^7 for evaluating PROTACs relative permeability. In summary, live and permeabilized HEK293 cells with SMARCA2 or BRD4-NanoLuc were used for measuring IC50 values of different PROTACs. The relative shift in the IC50 was evaluated as relative binding affinity (RBA) by taking the ratio of IC50 values of live and permeabilized cells. Availability index (AI), which is a surrogate for permeability can be calculated by taking a ratio of RBA of compounds to permeable benchmark molecules. We used SMARCA bromodomain binding ligand^8 for SMARCA2 PROTACs and JQ1^9, 10 for BRD4 PROTACs as benchmark molecules.
Relative Binding Affinity (RBA) = Live-cell TE IC50 / Permeabilized-cell TE IC50
Availability Index (AI) = RBAtest cmpd / RBApermeable benchmark
Availability Index (AI) greater than one is indicative of reduced permeability compared to the benchmark.

T1 sequence (P51531 whole entry): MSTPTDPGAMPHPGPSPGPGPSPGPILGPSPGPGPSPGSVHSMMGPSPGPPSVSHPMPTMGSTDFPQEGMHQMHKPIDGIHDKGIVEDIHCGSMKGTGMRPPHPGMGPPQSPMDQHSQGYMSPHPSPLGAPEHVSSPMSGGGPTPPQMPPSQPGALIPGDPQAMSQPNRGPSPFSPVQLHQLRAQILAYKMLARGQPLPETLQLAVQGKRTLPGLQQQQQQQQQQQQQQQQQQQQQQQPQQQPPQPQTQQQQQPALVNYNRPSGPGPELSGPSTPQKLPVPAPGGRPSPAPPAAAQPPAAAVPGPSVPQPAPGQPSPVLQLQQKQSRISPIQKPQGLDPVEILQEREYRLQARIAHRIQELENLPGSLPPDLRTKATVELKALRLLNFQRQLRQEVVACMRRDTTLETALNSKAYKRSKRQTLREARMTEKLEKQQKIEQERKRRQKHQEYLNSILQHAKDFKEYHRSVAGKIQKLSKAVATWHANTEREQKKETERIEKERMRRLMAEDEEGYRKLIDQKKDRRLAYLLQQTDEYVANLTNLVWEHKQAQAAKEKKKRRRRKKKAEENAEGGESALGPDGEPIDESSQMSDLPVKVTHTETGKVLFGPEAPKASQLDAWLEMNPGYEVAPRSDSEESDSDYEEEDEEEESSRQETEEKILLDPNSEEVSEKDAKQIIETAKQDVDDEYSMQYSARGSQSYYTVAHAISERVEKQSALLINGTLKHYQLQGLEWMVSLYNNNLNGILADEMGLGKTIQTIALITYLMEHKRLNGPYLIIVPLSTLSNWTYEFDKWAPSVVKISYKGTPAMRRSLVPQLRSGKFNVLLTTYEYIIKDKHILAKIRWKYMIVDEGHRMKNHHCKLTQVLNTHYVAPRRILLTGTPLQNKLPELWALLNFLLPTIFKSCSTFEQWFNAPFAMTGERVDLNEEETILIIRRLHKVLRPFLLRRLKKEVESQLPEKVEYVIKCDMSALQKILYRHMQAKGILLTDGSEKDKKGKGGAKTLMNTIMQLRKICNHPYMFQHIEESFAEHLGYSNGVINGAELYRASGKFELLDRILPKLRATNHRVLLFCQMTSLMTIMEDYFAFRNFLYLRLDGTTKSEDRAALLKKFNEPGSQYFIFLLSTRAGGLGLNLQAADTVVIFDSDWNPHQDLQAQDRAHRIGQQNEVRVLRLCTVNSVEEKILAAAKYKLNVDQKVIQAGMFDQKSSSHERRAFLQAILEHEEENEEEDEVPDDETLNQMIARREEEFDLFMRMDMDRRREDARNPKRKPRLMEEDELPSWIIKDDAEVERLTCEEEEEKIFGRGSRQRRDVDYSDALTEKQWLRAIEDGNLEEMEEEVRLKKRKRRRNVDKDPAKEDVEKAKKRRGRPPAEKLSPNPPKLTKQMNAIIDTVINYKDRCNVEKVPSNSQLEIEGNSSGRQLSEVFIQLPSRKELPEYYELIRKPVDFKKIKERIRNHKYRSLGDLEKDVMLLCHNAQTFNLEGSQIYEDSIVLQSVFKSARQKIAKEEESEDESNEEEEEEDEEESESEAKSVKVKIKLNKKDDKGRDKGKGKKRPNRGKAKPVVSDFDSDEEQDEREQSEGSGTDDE
T4 sequence (P51531 whole entry): as above
T3 sequence (P51531 1373-1493 isoform P51531-2): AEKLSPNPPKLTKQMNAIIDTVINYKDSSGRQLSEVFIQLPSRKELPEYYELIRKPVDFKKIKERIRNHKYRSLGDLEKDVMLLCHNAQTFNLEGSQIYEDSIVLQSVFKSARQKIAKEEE
T2 sequence (Q15369 17-112): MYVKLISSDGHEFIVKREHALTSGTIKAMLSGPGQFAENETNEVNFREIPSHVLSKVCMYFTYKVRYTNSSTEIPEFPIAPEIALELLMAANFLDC
T2 sequence (Q15370 1-104, further chain): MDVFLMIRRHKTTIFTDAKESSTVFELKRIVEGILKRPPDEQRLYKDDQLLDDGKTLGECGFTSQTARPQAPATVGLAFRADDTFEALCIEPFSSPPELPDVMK
T2 sequence (P40337 54-213): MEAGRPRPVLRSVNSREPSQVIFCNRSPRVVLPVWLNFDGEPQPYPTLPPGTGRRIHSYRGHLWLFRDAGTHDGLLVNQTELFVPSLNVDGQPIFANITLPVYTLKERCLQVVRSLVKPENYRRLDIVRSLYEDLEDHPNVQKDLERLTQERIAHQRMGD

With `Cc1ncsc1-c1ccc([C@H](C)NC(=O)[C@@H]2C[C@@H](O)CN2C(=O)[C@@H](NC(=O)c2csc(N3CCN(c4cc(-c5ccccc5O)nnc4N)CC3)n2)C(C)(C)C)cc1` [Compound 5, 2-(4-(3-Amino-6-(2-hydroxyphenyl)pyridazin-4-yl)piperazin-1-yl)-N-((S)-1-((2S,4R)-4-hydroxy-2-(((S)-1-(4-(4-methylthiazol-5-yl)phenyl)ethyl)carbamoyl)pyrrolidin-1-yl)-3,3-dimethyl-1-oxobutan-2-yl)thiazole-4-carboxamide] the Dmax (SMARCA2; A-375, SMARCA2 degraded, MSD assay, 2 h timepoint) was 96%, the “AUC (area under the dose-response curve)” value (SMARCA2; SMARCA2 MSD assay, 2 h) was 28 and the DC50 (SMARCA2; SMARCA2 degradation, MSD assay, 2 h timepoint) was 112 nM. It also gave a Kd (VHL/EloB/EloC (VBC)) of 84.7 ± 5 nM, a Kd (SMARCA2^BD) of 206 ± 34 nM and an IC50 (SMARCA2-NanoLuc; live HEK293 cells, read-out: Live-Cell TE IC50) of 1260 nM. The IC50 (SMARCA2-NanoLuc; permeabilized HEK293 cells, read-out: Permeabilized-Cell TE IC50) was 400 nM.
